Results reported in patent US10604785B2 (priority 2016, dated 2020).
Residues, ends and D or L forms follow the SMILES beside them. *: point of attachment. Cbz = O=C(OCc1ccccc1)*

System: Rab33b
Format: cell-based

In the case of `CC(C)C[C@@H](C=O)NC(=O)[C@H](CC(C)C)NC(=O)[C@H](CC(C)C)NC(=O)OCc1ccccc1` [MG132] (Cbz-Leu-Leu-Leu-aldehyde), the “effect on level of modified Rab33b” value is reported as “does not affect the level of modified Rab33b”.
